From US12448399B2, “Cereblon-based KRAS degrading PROTACs and uses related thereto” (Arvinas Operations, Inc., priority 2023, dated 2025)

The compounds below were run against T1, KRas-G12D (Homo sapiens, UniProt P01116, G12D) (assay: HiBiT Degradation Assay (G12D), AsPC-1 HiBiT-KRasG12D cells, 24 hr). Conditions: ASPC1, AsPC-1 cells, maximum degradation observed.
T1 construct: insert the HiBiT tag onto the N-terminus of one or more of the endogenous KRas alleles; host or cells: AsPC-1 HiBiT-KRasG12D knock-in clone (one tagged allele, two untagged KRasG12D alleles)
Format: cell-based
Description: AsPC-1 (CRL-1682) cells were purchased from ATCC and are homozygous for the G12D mutation in KRas. AsPC-1 cells were cultured in GIBCO RPMI-1640 (ThermoFisher Scientific, catalog #61870-036, with Glutamax, no HEPES, no Na Pyruvate) supplemented with 10% FBS (ThermoFisher Scientific, catalog #2060357) and 1× Penicillin-Streptomycin (ThermoFisher Scientific, catalog #15140122, 10000 U/ml, 100×). For degradation assays, 384 well plates were used. Alamar blue was purchased from ThermoFisher Scientific (A50101) and used according to manufacturer instructions. The Nano-Glo® HiBiT Lytic Detection System and Nano-Glo® HiBiT Blotting System were purchased from Promega (#N3050 and #N2410) and used according to manufacturer instructions.
To create the AsPC-1 HiBiT-KRasG12D cell line, CRISPR-Cas9 was used to insert the HiBiT tag onto the N-terminus of one or more of the endogenous KRas alleles. See Schwinn, M. K. et al. (2018) CRISPR-mediated tagging of endogenous proteins with a luminescent peptide, ACS Chem. Biol. 13(2), 467-474. After knock-in of the tag, individual clones were isolated by single cell dilution and screened for HiBiT insertion by PCR. A clone was identified that contained the desired HiBiT-KRasG12D sequence at one allele while the remaining two KRasG12D alleles were untagged. This clone was used in further studies.
AsPC-1 HiBiT-KRasG12D cells were plated at 9000 or 15,000 cells/well in a 384 well plate (Corning #3770). Compounds of the present disclosure and positive controls were diluted in the appropriate cell media and applied to the plated cells resulting in a final concentration titration of 10 μM to […] in 0.5% DMSO. Gambogic acid was used as a positive control for cytotoxicity and titrated from 10 μM to 78 nM. All assays were performed in triplicate. Cells were treated with compounds for 24 hr at 37° C. in an incubator containing 5% CO2. Following treatment, alamar blue was used to determine if any compounds led to a loss in cell viability after 24 hr. The 10× alamar blue reagent was added to a final concentration of 1× as recommended by the manufacturer and cells were returned to the incubator for 4 hr. Plates were then allowed to equilibrate to RT and fluorescence was measured using a Perkin-Elmer EnVision. After completion of the fluorescence read, the liquid from each well was removed and the cells were washed with PBS. The Nano-Glo® HiBiT detection reagent was prepared according to the manufacturer's instructions and added to each well after the PBS wash was removed. Following incubation at room temperature for 45 min, the luminescence was read using the ultra-sensitive luminescence aperture on the Envision instrument.
Fluorescence values from the alamar blue treatment were normalized to the DMSO-only control for each compound titration. HiBiT luminescence was normalized to the DMSO-only control and the fractional HiBiT signal was plotted versus the log of the PROTAC concentration and fit to a 4-parameter dose-response model to obtain the concentration of the compound that leads to half maximal degradation (DC50) as well as the maximum degradation observed (Dmax, conventionally expressed as a percentage of control).

T1 sequence (P01116 1-188 isoform P01116-2 G12D): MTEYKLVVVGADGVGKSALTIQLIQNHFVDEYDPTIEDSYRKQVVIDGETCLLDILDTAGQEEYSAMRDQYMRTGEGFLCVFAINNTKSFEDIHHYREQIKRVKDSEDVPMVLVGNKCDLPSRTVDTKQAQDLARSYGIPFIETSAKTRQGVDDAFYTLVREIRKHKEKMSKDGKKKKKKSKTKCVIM

With `CCc1cccc2cc(O)cc(-c3ncc4c(N5CC6CCC(C5)N6)nc(OC[C@]56CCCN5[C@@H](COC(=O)N5CCN(c7cccc8c7CN(C7CCC(=O)N(C)C7=O)C8=O)CC5)CC6)nc4c3F)c12` (stereo partly drawn) [Compound 54, [(3R,8R)-8-[[4-(3,8-diazabicyclo[3.2.1]octan-3-yl)-7-(8-ethyl-3-hydroxy-1-naphthyl)-8-fluoro-pyrido[4,3-d]pyrimidin-2-yl]oxymethyl]-1,2,3,5,6,7-hexahydropyrrolizin-3-yl]methyl4-[2-(1-methyl-2,6-dioxo-3-piperidyl)-1-oxo-isoindolin-4-yl]piperazine-1-carboxylate] the Dmax was at most 25%.

Same assay, conditions: AsPC-1 cells

`CCc1cccc2cc(O)cc(-c3ncc4c(N5CC6CCC(C5)N6)nc(OC[C@]56CCCN5[C@@H](COC(=O)N5CCN(c7cccc8c7CN(C7CCC(=O)N(C)C7=O)C8=O)CC5)CC6)nc4c3F)c12` (stereo partly drawn) [Compound 54, [(3R,8R)-8-[[4-(3,8-diazabicyclo[3.2.1]octan-3-yl)-7-(8-ethyl-3-hydroxy-1-naphthyl)-8-fluoro-pyrido[4,3-d]pyrimidin-2-yl]oxymethyl]-1,2,3,5,6,7-hexahydropyrrolizin-3-yl]methyl4-[2-(1-methyl-2,6-dioxo-3-piperidyl)-1-oxo-isoindolin-4-yl]piperazine-1-carboxylate] and `CCc1cccc2cc(O)cc(-c3ncc4c(N5CC6CCC(C5)N6)nc(OC[C@@]56CCCN5[C@H](COC(=O)N5CCN(c7cccc8c7CN(C7CCC(=O)NC7=O)C8=O)CC5)CC6)nc4c3F)c12` (stereo partly drawn) [Compound 60, [(3S,8S)-8-[[4-(3,8-diazabicyclo[3.2.1]octan-3-yl)-7-(8-ethyl-3-hydroxy-1-naphthyl)-8-fluoro-pyrido[4,3-d]pyrimidin-2-yl]oxymethyl]-1,2,3,5,6,7-hexahydropyrrolizin-3-yl]methyl 4-[2-(2,6-dioxo-3-piperidyl)-1-oxo-isoindolin-4-yl]piperazine-1-carboxylate] cannot be ordered by DC50: 250 to 1000 nM for the first, 100 to 5250 nM for the second.

`CCc1cccc2cc(O)cc(-c3ncc4c(N5CC6CCC(C5)N6)nc(OCCN5CCC(CC6CCN(CC7CCN(c8cccc9c8CN(C8CCC(=O)NC8=O)C9=O)CC7)CC6)CC5)nc4c3F)c12` (stereo not shown) [Compound 55, 3-[4-[4-[[4-[[1-[2-[4-(3,8-diazabicyclo[3.2.1]octan-3-yl)-7-(8-ethyl-3-hydroxy-1-naphthyl)-8-fluoro-pyrido[4,3-d]pyrimidin-2-yl]oxyethyl]-4-piperidyl]methyl]-1-piperidyl]methyl]-1-piperidyl]-1-oxo-isoindolin-2-yl]piperidine-2,6-dione] and `CCc1cccc2cc(O)cc(-c3ncc4c(N5CC6CCC(C5)N6)nc(OCCN5CCC(CC6CCN(c7cccc8c7CN(C7CCC(=O)NC7=O)C8=O)CC6)CC5)nc4c3F)c12` (stereo not shown) [Compound 56, 3-[4-[4-[[1-[2-[4-(3,8-diazabicyclo[3.2.1]octan-3-yl)-7-(8-ethyl-3-hydroxy-1-naphthyl)-8-fluoro-pyrido[4,3-d]pyrimidin-2-yl]oxyethyl]-4-piperidyl]methyl]-1-piperidyl]-1-oxo-isoindolin-2-yl]piperidine-2,6-dione] cannot be ordered by DC50: under 5100 nM for the first, 250 to 1000 nM for the second.

`CCc1cccc2cc(O)cc(-c3ncc4c(N5CC6CCC(C5)N6)nc(OCCN5CCC(CC6CCN(CC7CCN(c8cccc9c8C(=O)N(C8CCC(=O)NC8=O)C9=O)CC7)CC6)CC5)nc4c3F)c12` (stereo not shown) [Compound 57, 4-[4-[[4-[[1-[2-[4-(3,8-diazabicyclo[3.2.1]octan-3-yl)-7-(8-ethyl-3-hydroxy-1-naphthyl)-8-fluoro-pyrido[4,3-d]pyrimidin-2-yl]oxyethyl]-4-piperidyl]methyl]-1-piperidyl]methyl]-1-piperidyl]-2-(2,6-dioxo-3-piperidyl)isoindoline-1,3-dione] and `CCc1cccc2cc(O)cc(-c3ncc4c(N5CC6CCC(C5)N6)nc(OC[C@@]56CCCN5[C@H](COC(=O)N5CCN(c7cccc8c7C(=O)N(C7CCC(=O)NC7=O)C8=O)CC5)CC6)nc4c3F)c12` (stereo partly drawn) [Compound 64, [(3S,8S)-8-[[4-(3,8-diazabicyclo[3.2.1]octan-3-yl)-7-(8-ethyl-3-hydroxy-1-naphthyl)-8-fluoro-pyrido[4,3-d]pyrimidin-2-yl]oxymethyl]-1,2,3,5,6,7-hexahydropyrrolizin-3-yl]methyl 4-[2-(2,6-dioxo-3-piperidyl)-1,3-dioxo-isoindolin-4-yl]piperazine-1-carboxylate] fall in the same range of DC50: 100 to 5250 nM for the first, 100 to 5250 nM for the second.

`CCc1cccc2cc(O)cc(-c3ncc4c(N5CC6CCC(C5)N6)nc(OC[C@@]56CCCN5[C@H](COC(=O)N5CCN(c7ccc8c(c7)CN(C7CCC(=O)NC7=O)C8=O)CC5)CC6)nc4c3F)c12` (stereo partly drawn) [Compound 58, [(3S,8S)-8-[[4-(3,8-diazabicyclo[3.2.1]octan-3-yl)-7-(8-ethyl-3-hydroxy-1-naphthyl)-8-fluoro-pyrido[4,3-d]pyrimidin-2-yl]oxymethyl]-1,2,3,5,6,7-hexahydropyrrolizin-3-yl]methyl 4-[2-(2,6-dioxo-3-piperidyl)-1-oxo-isoindolin-5-yl]piperazine-1-carboxylate] and `CCc1cccc2cc(O)cc(-c3ncc4c(N5CC6CCC(C5)N6)nc(OC[C@]56CCCN5[C@@H](COC(=O)N5CCN(c7ccc8c(c7)CN(C7CCC(=O)NC7=O)C8=O)CC5)CC6)nc4c3F)c12` (stereo partly drawn) [Compound 59, [(3R,8R)-8-[[4-(3,8-diazabicyclo[3.2.1]octan-3-yl)-7-(8-ethyl-3-hydroxy-1-naphthyl)-8-fluoro-pyrido[4,3-d]pyrimidin-2-yl]oxymethyl]-1,2,3,5,6,7-hexahydropyrrolizin-3-yl]methyl 4-[2-(2,6-dioxo-3-piperidyl)-1-oxo-isoindolin-5-yl]piperazine-1-carboxylate] cannot be ordered by DC50: under 5100 nM for the first, under 5100 nM for the second.

`CCc1cccc2cc(O)cc(-c3ncc4c(N5CC6CCC(C5)N6)nc(OC[C@]56CCCN5[C@@H](COC(=O)N5CCN(c7cccc8c7CN(C7CCC(=O)NC7=O)C8=O)CC5)CC6)nc4c3F)c12` (stereo partly drawn) [Compound 61, [(3R,8R)-8-[[4-(3,8-diazabicyclo[3.2.1]octan-3-yl)-7-(8-ethyl-3-hydroxy-1-naphthyl)-8-fluoro-pyrido[4,3-d]pyrimidin-2-yl]oxymethyl]-1,2,3,5,6,7-hexahydropyrrolizin-3-yl]methyl 4-[2-(2,6-dioxo-3-piperidyl)-1-oxo-isoindolin-4-yl]piperazine-1-carboxylate] and `CCc1cccc2cc(O)cc(-c3ncc4c(N5CC6CCC(C5)N6)nc(OC[C@]56CCCN5[C@@H](COC(=O)N5CCN(c7cccc8c7C(=O)N(C7CCC(=O)NC7=O)C8=O)CC5)CC6)nc4c3F)c12` (stereo partly drawn) [Compound 65, [(3R,8R)-8-[[4-(3,8-diazabicyclo[3.2.1]octan-3-yl)-7-(8-ethyl-3-hydroxy-1-naphthyl)-8-fluoro-pyrido[4,3-d]pyrimidin-2-yl]oxymethyl]-1,2,3,5,6,7-hexahydropyrrolizin-3-yl]methyl 4-[2-(2,6-dioxo-3-piperidyl)-1,3-dioxo-isoindolin-4-yl]piperazine-1-carboxylate] fall in the same range of DC50: 250 to 1000 nM for the first, 250 to 1000 nM for the second.

`CCc1cccc2cc(O)cc(-c3ncc4c(N5CC6CCC(C5)N6)nc(OC[C@@]56CCCN5[C@H](COC(=O)N5CCN(c7ccc8c(c7)C(=O)N(C7CCC(=O)NC7=O)C8=O)CC5)CC6)nc4c3F)c12` (stereo partly drawn) [Compound 62, [(3S,8S)-8-[[4-(3,8-diazabicyclo[3.2.1]octan-3-yl)-7-(8-ethyl-3-hydroxy-1-naphthyl)-8-fluoro-pyrido[4,3-d]pyrimidin-2-yl]oxymethyl]-1,2,3,5,6,7-hexahydropyrrolizin-3-yl]methyl4-[2-(2,6-dioxo-3-piperidyl)-1,3-dioxo-isoindolin-5-yl]piperazine-1-carboxylate] and `CCc1cccc2cc(O)cc(-c3ncc4c(N5CC6CCC(C5)N6)nc(OC[C@]56CCCN5[C@@H](COC(=O)N5CCN(c7ccc8c(c7)C(=O)N(C7CCC(=O)NC7=O)C8=O)CC5)CC6)nc4c3F)c12` (stereo partly drawn) [Compound 63, [(3R,8R)-8-[[4-(3,8-diazabicyclo[3.2.1]octan-3-yl)-7-(8-ethyl-3-hydroxy-1-naphthyl)-8-fluoro-pyrido[4,3-d]pyrimidin-2-yl]oxymethyl]-1,2,3,5,6,7-hexahydropyrrolizin-3-yl]methyl4-[2-(2,6-dioxo-3-piperidyl)-1,3-dioxo-isoindolin-5-yl]piperazine-1-carboxylate] cannot be ordered by DC50: under 5100 nM for the first, 250 to 1000 nM for the second.
